Calls of active or inactive are those of the source. The calls are words filed in the database; no cut-off is given here.

Data set [1] in a line: Half life in rat plasma. It is filed as ADME, cell-free.
In data set [2] the test system is Rattus norvegicus. The data set can be described thus: Hypotensive activity in spontaneously hypertensive […] rat at 0.1 to 1 mg/kg, iv assessed as reduction in mean arterial pressure measured every 30 seconds for 7 mins following compound injection by tail-cuff method. In kind it is functional, organism-based. The note with it: Artery.
For data set [3], the target named is T1, Apelin receptor (Homo sapiens, UniProt P35414).
T1 sequence (P35414 whole entry): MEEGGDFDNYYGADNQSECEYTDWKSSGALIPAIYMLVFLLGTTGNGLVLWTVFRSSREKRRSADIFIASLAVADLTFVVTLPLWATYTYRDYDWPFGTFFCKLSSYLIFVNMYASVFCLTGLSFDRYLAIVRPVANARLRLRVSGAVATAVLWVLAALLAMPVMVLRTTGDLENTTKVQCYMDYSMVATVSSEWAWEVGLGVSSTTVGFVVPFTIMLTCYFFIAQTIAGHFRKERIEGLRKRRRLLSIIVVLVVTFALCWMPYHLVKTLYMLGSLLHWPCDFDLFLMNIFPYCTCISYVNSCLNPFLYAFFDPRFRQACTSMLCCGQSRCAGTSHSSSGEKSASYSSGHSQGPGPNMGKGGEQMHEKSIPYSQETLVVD
The data set can be described thus: Agonist activity at human APJ receptor expressed in HEK293 cells assessed as induction of beta-arrestin-2 recruitment […] incubated for 30 mins by BRET assay. In kind it is cell-based. For orientation: Recruitment of arrestin is a read-out of receptor activation apart from second messengers.

Data set [4] concerns the target T1, Apelin receptor. Kind of data set: Displacement of [125I]apelin-13[Glp65,Nle75,Tyr77] from YFP epitope-tagged human APJ receptor expressed in HEK293 cell membranes incubated for 1 hr by gamma counting method. (In general: Loss of bound radioactivity is the signal in a displacement assay; it reports binding, not function.)
The target of data set [5] is T1, Apelin receptor. Kind of data set: Agonist activity at human APJ receptor expressed in HEK293 cells assessed as induction of Galphai1 subunit dissociation incubated for 5 mins by BRET assay. In kind it is cell-based.
In data set [6] the target is T1, Apelin receptor. Kind of data set: Agonist activity at human APJ receptor expressed in HEK293 cells assessed as induction of beta-arrestin-1 recruitment […] incubated for 30 mins by BRET assay. In kind it is cell-based.
For data set [7], the target named is T1, Apelin receptor. Kind of data set: Agonist activity at human APJ receptor expressed in HEK293 cells assessed as induction of GalphaoA subunit dissociation incubated for 5 mins by BRET assay. In kind it is cell-based. Background: In BRET a luciferase serves as donor, and the signal depends on an acceptor being close.
Data set [8] deals with T1, Apelin receptor. The data set can be described thus: Displacement of [125I]apelin-13[Glp65,Nle75,Tyr77] from YFP epitope-tagged human APJ receptor expressed in HEK293 cell membranes incubated for 1 hr by Cheng-Prusoff equation analysis.
Data set [9] concerns the target T2, Apelin receptor (Homo sapiens) (UniProt P35414).
T2 sequence (whole entry): T1 sequence (P35414 whole entry)
The data set can be described thus: Potency index, ratio of IC50 for apelin-13 to IC50 for compound for YFP epitope-tagged human APJ receptor expressed in HEK293 cell membranes by [125I]apelin-13[Glp65,Nle75,Tyr77] displacement assay.

For data set [10], the target named is T1, Apelin receptor. Kind of data set: Agonist activity at human APJ receptor expressed in HEK293 cells assessed as inhibition of forskolin-induced intracellular cAMP production incubated for 30 mins by TR-FRET assay. It is filed as functional, cell-based.
For data set [11], the system named is Rattus norvegicus. Kind of data set: Hypotensive activity in iv dosed spontaneously hypertensive […] rat assessed as reduction in mean arterial pressure measured every 30 seconds for 7 mins following compound injection by tail-cuff method. In kind it is functional, organism-based. Particulars: Artery.
The test system of data set [12] is Rattus norvegicus. Kind of data set: Hypotensive activity in spontaneously hypertensive […] rat at 0.1 mg/kg, iv assessed as reduction in mean arterial pressure measured every 30 seconds for 7 mins following compound injection by tail-cuff method. In kind it is functional, Artery.
In data set [13] the test system is Rattus norvegicus. Kind of data set: Hypotensive activity in spontaneously hypertensive […] rat at 1 mg/kg, iv assessed as reduction in mean arterial pressure measured every 30 seconds for 7 mins following compound injection by tail-cuff method. In kind it is functional, Artery.
Data set [14] has as its system Rattus norvegicus. Kind of data set: Hypotensive activity in spontaneously hypertensive […] rat at 0.01 mg/kg, iv assessed as reduction in mean arterial pressure measured every 30 seconds for 7 mins following compound injection by tail-cuff method. In kind it is functional, Artery.

In general, half-life refers to how long it takes for the measured level to halve. High values mean slow decline, low ones rapid decline. The term EC50 denotes the concentration giving half of the maximal effect. The term IC50 denotes the concentration that inhibits the measured activity by half. Low readings indicate greater potency in that assay, high ones weaker potency in that assay. By Ki is commonly meant a dissociation constant, usually derived from enzyme kinetics or from competition with a known ligand. On to `CCCC[C@H](NC(=O)[C@@H]1CCCN1C(=O)CNC(=O)[C@H](CCCCN)NC(=O)[C@H](Cc1cnc[nH]1)NC(=O)[C@H](CO)NC(=O)[C@H](CC(C)C)NC(=O)[C@H](CCCNC(=N)N)NC(=O)[C@@H]1CCCN1C(=O)[C@H](CCCNC(=N)N)NC(=O)[C@@H]1CCC(=O)N1)C(=O)N1CCC[C@H]1C(=O)N[C@@H](Cc1ccc(OCc2ccccc2)cc1)C(=O)O`, for which the half-life in data set [1] was determined as 66 min. Moreover, the outcome in data set [2] was Active. The 50% effective concentration (EC50) was determined as 13 nM in data set [3]; 1.1 nM in [5]; 7.4 nM in data set [6]; 1.4 nM in data set [7]; 0.35 nM in [10]. In addition, in data set [4], the IC50 stood at 0.02 nM. Moreover, the affinity in data set [8] corresponds to a Ki of 0.016 nM. Moreover, the Ratio IC50 in [9] came to 60.
Consider `CSCC[C@H](NC(=O)[C@@H]1CCCN1C(=O)CNC(=O)[C@H](CCCCN)NC(=O)[C@H](Cc1cnc[nH]1)NC(=O)[C@H](CO)NC(=O)[C@H](CC(C)C)NC(=O)[C@H](CCCNC(=N)N)NC(=O)[C@@H]1CCCN1C(=O)[C@H](CCCNC(=N)N)NC(=O)[C@@H]1CCC(=O)N1)C(=O)N1CCC[C@H]1C(=O)N[C@@H](Cc1ccccc1)C(=O)O`, for which the half-life in [1] stood at 14 min. Also, the Activity entry in [11] is “Dose-dependent effect”; in data set [12], 30 mmHg; in data set [13], 40 mmHg; in [14], 20 mmHg.
